Marks after values point to notes of the source that are not given here.
Assays:
C57BLKS/J db/db mice = experiment: 5-week body weight study in db/db mice; type: in vivo; conditions: for Body weight, Initial: baseline, male db/db mice, standard rodent food; for Body weight, Initial / Body weight, Week 2 / Body weight, Week 4: feed-ad-mix 1400 mg/kg BW/day each, group mean; for Body weight decrease, Week 2 / Body weight decrease, Week 4: decrease in comparison to control group, 1400 mg/kg BW/day each
Method: The efficacy of the combination of EGCG and RK as well as of both compounds alone on body weight and adiposity was tested in a 5-week study in C57BLKS/J db/db mice (n=8-9/group). This model of late type 2 diabetes with severe hyperglycemia and obesity is widely used to determine the efficacy of anti-diabetic and anti-obesity compounds. Male db/db mice were obtained from Jackson Laboratory (Bar Harbor, Me., USA). Adult mice aged 8 weeks were used in the experiment. Mice were housed individually in plastic cages with bedding and allowed free access to standard rodent food and tap water. The animal rooms were controlled for temperature (24° C.), humidity (55%), and light (12-h light-dark cycle). The animals were randomized into four groups. EGCG and RK were administered as feed-ad-mix. Corn cellulose (2% of diet) served as a carrier substance for EGCG and RK as well as a placebo when used alone. Group 1 received placebo, group 2 received EGCG at a dose of 1400 mg/kg BW/day, group 3 received RI<at a dose of 1400 mg/kg BW/day, and group 4 received the combination of EGCG and RK at a doses of 1400 and 1400 mg/kg BW/day, respectively. Body weight and food intake were determined over the course of the study. All data are expressed as means for animals in each diet group. There was no difference in food intake between the groups over the study period. The decrease in body weight in comparison to the control group caused by each treatment was calculated (data are shown in Table 4). The expected treatment effect of the combined therapy with EGCG and RK was calculated by the sum of the effects exerted by monotherapy with EGCG or RK. The synergistic factor (SF) is defined as the quotient of the observed effect and the expected effect. If SF>1, a synergistic effect was exerted by the combined treatment.

[1] = tested on: C57BL6/J mice fed a high fat, high sucrose diet; experiment: 4-week body weight study in diet-induced obese mice; type: in vivo; conditions: for Body weight compared to control mice (in words): 4 week study period; for Body weight compared to control mice (in words) / Body weight, Initial / Body weight, Week 2 / Body weight, Week 4: high fat high sucrose diet; for Body weight, Initial: baseline, male C57BL6/J mice; for Body weight, Initial / Body weight, Week 2 / Body weight, Week 4: feed-ad-mix 1400 mg/kg BW/day each, group mean; for Body weight decrease, Week 2 / Body weight decrease, Week 4: decrease in comparison to control group, 1400 mg/kg BW/day each
Method: The efficacy of the combination of EGCG and RK as well as of both compounds alone on body weight and adiposity was tested in a 4-week study in C57BL6/J mice fed a high fat, high sucrose diet (n=8-11/group). This model of diet-induced obesity and early type 2 diabetes is widely used to determine the efficacy of anti-obesity compounds. Male C57BL6/J mice were obtained from Jackson Laboratory (Bar Harbor, Me., USA). Adult mice aged […] were used in the experiment. Mice were housed individually in plastic cages with bedding and allowed free access to a high fat, high sucrose mouse diet (Kliba # 2154, Klibamuehle, Kaiseraugst, Switzerland) and tap water. The animal rooms were controlled for temperature (24° C.), humidity (55%), and light (12-h light-dark cycle). The animals were randomized into four groups. EGCG and RK were administered as feed-ad-mix. Corn cellulose (2% of diet) served as a carrier substance for EGCG and RK as well as a placebo when used alone. Group 1 received placebo, group 2 received EGCG at a dose of 1400 mg/kg body weight (BW)/day, group 3 received RK at a dose of 1400 mg/kg BW/day, and group 4 received the combination of EGCG and RK at a doses of 1400 and 1400 mg/kg BW/day, respectively. Body weight and food intake were determined over the course of the study. All data are expressed as means for animals in each diet group. There was no difference in food intake between the groups over the study period. […] The decrease in body weight in comparison to the control group caused by each treatment was calculated (data are shown in Table 2). The expected treatment effect of the combined therapy with EGCG and RK was calculated by the sum of the effects exerted by monotherapy with EGCG or RK. The synergistic factor (SF) is defined as the quotient of the observed effect and the expected effect. If SF>1, a synergistic effect was exerted by the combined treatment.

Compound | Body weight, Initial (C57BLKS/J db/db mice) | Body weight compared to untreated control (in words), after four weeks of treatment (C57BLKS/J db/db mice; db/db mice) | Body weight compared to control (in words), during the study period (C57BLKS/J db/db mice; db/db mice, whole study period) | Body weight decrease, Week 2 (C57BLKS/J db/db mice; week 2) | Body weight decrease, Week 4 (C57BLKS/J db/db mice) | Body weight, Week 2 (C57BLKS/J db/db mice; week 2, db/db mice) | Body weight, Week 4 (C57BLKS/J db/db mice; db/db mice) | Body weight compared to control mice (in words) [1] | Body weight, Initial [1] | Body weight decrease, Week 2 [1] | Body weight decrease, Week 4 [1] | Body weight, Week 2 [1] | Body weight, Week 4 [1] | Body weight compared to control mice (in words), week 2 (C57BLKS/J db/db mice; db/db mice, week 2)
CC(=O)CCc1ccc(O)cc1 [RK, 4-(4-hydroxyphenyl)-2-butanone] | 32.5 g | neither EGCG nor RK caused a significant decrease in body weight | did not significantly decrease body weight | 0.3 g | 0.4 g | 38.4 g | 38.0 g | significant decrease in body weight | 11.5 g | 1.6 g | 1.5 g | 19.0* g | 22.1* g | –
O=C(O[C@@H]1Cc2c(O)cc(O)cc2O[C@@H]1c1cc(O)c(O)c(O)c1)c1cc(O)c(O)c(O)c1 [EGCG, epigallocatechin gallate] | 32.2 g | neither EGCG nor RK caused a significant decrease in body weight | – | 3.0 g | 0.8 g | 35.7* g | 37.7 g | significant decrease in body weight | 11.4 g | 2.7 g | 2.2 g | 17.7* g | 21.4* g | significant decrease in body weight
